Several values for one entry are separate records, joined by “and”; a condition that tells them apart may be missing. Equal entries are not always repeated.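 A five-concentration, 48-hour dose response in 96-well plates underlies each endpoint, interpolated linearly between surrounding concentrations. Abbreviation: GI50, concentration required for 50% inhibition of growth. At the TGI there is no net growth.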
Legend:
Experiment in all cases: NCI tumour cell line growth inhibition, 48 h
TK-10 renal = tested on: TK-10 renal
HL-60(TB) leukemia = tested on: HL-60(TB) leukemia
SNB-19 CNS = tested on: SNB-19 CNS
MOLT-4 leukemia = tested on: MOLT-4 leukemia
M14 melanoma = tested on: M14 melanoma
RXF 393 renal = tested on: RXF 393 renal
ACHN renal = tested on: ACHN renal
CCRF-CEM leukemia = tested on: CCRF-CEM leukemia
SK-MEL-5 melanoma = tested on: SK-MEL-5 melanoma

Structure (SMILES)	TGI (TK-10 renal)	TGI (HL-60(TB) leukemia)	TGI (SNB-19 CNS)	TGI (MOLT-4 leukemia)	TGI (M14 melanoma)	TGI (RXF 393 renal)	TGI (ACHN renal)	TGI (CCRF-CEM leukemia)	TGI (SK-MEL-5 melanoma)	GI50 (TK-10 renal)	GI50 (HL-60(TB) leukemia)	GI50 (SNB-19 CNS)	GI50 (MOLT-4 leukemia)	GI50 (M14 melanoma)	GI50 (RXF 393 renal)	GI50 (ACHN renal)	GI50 (CCRF-CEM leukemia)	GI50 (SK-MEL-5 melanoma)
COC(=O)C1=NC(=S)NC(c2ccccc2)C1c1nc2ccccc2o1 (stereo unspecified)	> 50 µM	> 50 µM	> 50 µM	> 50 µM	> 50 µM	> 50 µM	> 50 µM	> 50 µM	–	–	–	–	–	–	–	–	–	–
Cc1cc(NCCCCCCCNc2cc(C)nc3cc(N)ccc23)c2ccc(N)cc2n1	> 100 µM	23.9 µM	> 100 µM	> 100 µM	> 100 µM	> 100 µM	> 100 µM	64.9 µM	> 100 µM	–	–	–	–	–	–	–	–	–
CC(C)c1ccc(O)c(Cc2cc(C(C)C)cc(Cc3cc(C(C)C)ccc3O)c2O)c1	4.72 µM	4.36 µM	3.12 µM	4.68 µM	3.23 µM	–	10.8 µM	6.91 µM	3.15 µM	–	–	–	–	–	–	–	–	–
O=C1C(Cl)=C(Nc2ccc(S(=O)(=O)c3ccc(NC4=C(Cl)C(=O)c5ccccc5C4=O)cc3)cc2)C(=O)c2ccccc21	3.04 µM	8.62 µM	13.9 µM	5.86 µM	3.26 µM	2.96 µM	2.69 µM	> 100 µM	3.49 µM	1.67 µM	3.24 µM	3.11 µM	1.87 µM	1.82 µM	1.6 µM	1.31 µM	1.9 µM	1.71 µM
COC(=O)Cc1cc(=O)n2c3ccccc3n(C)c2c1C#N	> 100 µM	> 100 µM	> 100 µM	> 100 µM	> 100 µM	> 100 µM	> 100 µM	–	> 100 µM	–	–	–	–	–	–	–	–	–
CC(=O)CCC1(c2ccccc2)OC(=O)C(C#N)=C1c1ccccc1 (stereo unspecified)	> 100 µM	–	> 100 µM	> 100 µM	> 100 µM	–	> 100 µM	> 100 µM	> 100 µM	–	–	–	–	–	–	–	–	–
COC(=O)CC1(O)C(=O)OCc2c1cc1n(c2=O)Cc2c-1nc1ccccc1c2OC (stereo unspecified)	> 100 µM	0.778 µM	66.2 µM	0.165 µM	32.2 µM	8.42 µM	1.02 µM	0.594 µM	2.74 µM	–	–	–	–	–	–	–	–	–
Cc1ccc(C)c2c1C1CCCCC3(OCCCO3)C21O (stereo unspecified)	> 100 µM	> 100 µM	> 100 µM	> 100 µM	> 100 µM	> 100 µM	> 100 µM	> 100 µM	> 100 µM	–	–	–	–	–	–	–	–	–
O=C(N/C(=C\c1ccc([N+](=O)[O-])cc1)c1nc2ccccc2s1)c1ccccc1	61.9 µM	–	> 100 µM	48 µM	81.8 µM	78.4 µM	92.1 µM	66.3 µM	63.5 µM	–	–	–	–	–	–	–	–	–
N#C/C(=C\c1ccc(O)cc1)C(N)=O	> 100 µM	> 100 µM	> 100 µM	> 100 µM	> 100 µM	> 100 µM	> 100 µM	> 100 µM	> 100 µM	–	–	–	–	–	–	–	–	–
OC12CCC3(OC4CCCCO4)c4ccccc4C3C1c1ccccc12 (stereo unspecified)	> 100 µM	> 100 µM	> 100 µM	> 100 µM	> 100 µM	> 100 µM	> 100 µM	> 100 µM	> 100 µM	–	–	–	–	–	–	–	–	–
C=CCNC(=S)NNC(=O)c1c(C)nc2sccn12	> 100 µM	> 100 µM	> 100 µM	> 100 µM	–	> 100 µM	> 100 µM	> 100 µM	> 100 µM	–	–	–	–	–	–	–	–	–
CCCC1C[C@H]2CCCCN2[C@H]2CCCN12 (stereo partly specified)	> 100 µM	> 64 µM	> 100 µM	> 100 µM	> 100 µM	> 90.1 µM	> 100 µM	> 68.6 µM	> 100 µM	–	–	–	–	–	–	–	–	–
CCOc1ccc(NC(=O)CC2SC(=Nc3ccc(C)cc3)NC2=O)cc1 (stereo unspecified)	> 100 µM	–	> 100 µM	77.6 µM	> 100 µM	> 100 µM	> 100 µM	> 100 µM	> 100 µM	–	–	–	–	–	–	–	–	–
Cc1cc(Cl)ccc1N=C1NC(=O)C(CC(=O)Nc2cccc(Cl)c2)S1 (stereo unspecified)	> 100 µM	> 100 µM	> 100 µM	–	> 100 µM	72.6 µM	> 100 µM	> 100 µM	> 100 µM	–	–	–	–	–	–	–	–	–
FC(F)(F)c1ccccc1C1SCc2nc3ccccc3n21 (stereo unspecified)	> 100 µM	47 µM	> 100 µM	> 100 µM	–	> 100 µM	> 100 µM	> 100 µM	–	–	–	–	–	–	–	–	–	–
CC1[C@@]2(CCC(C)(C)O2)O[C@@H]2C=C3C4CCC5Cc6nc7c(nc6C[C@@]5(C)C4C[C@H](O)[C@@]3(C)[C@]12O)CC1CCC2C3=C[C@H]4O[C@@]5(O[C@@](C)(CO)C[C@@H]5O)C(C)[C@@]4(O)[C@]3(C)[C@@H](O)CC2[C@]1(C)C7 (stereo partly specified)	0.981 µM	0.331 µM and 0.0465 µM	0.808 µM and 0.82 µM	–	0.122 µM	–	–	0.106 µM and 0.018 µM	0.37 µM and 0.0841 µM	–	< 0.000365 µM	0.041 µM	0.00141 µM	–	< 0.000365 µM	–	0.0017 µM	0.0165 µM
COc1ccc(/C=C/C(=N\NC(=O)c2ccccc2)c2sc(Nc3ccc([N+](=O)[O-])cc3)nc2C)cc1OC	66.5 µM	–	32.5 µM	> 100 µM	28.9 µM	52.5 µM	41.8 µM	> 100 µM	–	–	–	–	–	–	–	–	–	–
